Values of other authors in US20260373165A1, “PHARMACEUTICAL COMBINATIONS AND COMPOSITIONS, AND METHODS OF USE THEREOF” (SHENZHEN HIGHTIDE BIOPHARMACEUTICAL LTD., priority 2022, published 2026).

Conditions: after 52 weeks of treatment, lower dose of semaglutide; cited from earlier work

## Cc1ccc([C@@H]2O[C@H](CO)[C@@H](O)[C@H](O)[C@H]2O)cc1Cc1ccc(-c2ccc(F)cc2)s1 [cangliflozin, canagliflozin]
  average decrease in total fat mass: 7.8%
  average decrease in total muscle mass: 2.9%
